ChEMBL document CHEMBL5442663, “ASAP - Solubility” (2024)
Values after ≈ are worked out from the molar mass of the structure shown. Values joined by “and” are separate entries in the source; they are usually repeats but may differ in a detail not shown here. Equal entries are not always repeated.

Experiment: Kinetic solubility of compound by measuring concentration at pH 7.4 in saturated PBS buffer by UV LCMS/MS using calibration curves. The assay has been performed by Enamine biological services, Bienta Ltd.The protocol is publicly available: dx.doi.org/10.17504/protocols.io.j8nlk8y41l5r/v1
Type: physicochemical
Details: for solubility kinetic: PBS buffer; for Solubility (mean): buffer

solubility kinetic | Solubility (mean) | Compound
385 µM (≈ 143 µg/mL) | 386 µM (≈ 143 µg/mL) | CC(C)[C@@H](Nc1ncnc2[nH]ccc12)c1ccc2c(c1)S(=O)(=O)CCC2
392 µM (≈ 195 µg/mL) | – | CC(C)[C@@H](Nc1ncnc2[nH]c(C(=O)N[C@H]3CCN(C)C3)cc12)c1ccc2c(c1)S(=O)(=O)CCC2
328 µM (≈ 145 µg/mL) | – | CCNC(=O)c1cc2c(N[C@@H](c3ccc4c(c3)S(=O)(=O)CCO4)C(C)C)ncnc2[nH]1
63 µM (≈ 29.3 µg/mL) | – | Cc1nn(C)cc1-c1cc2c(N[C@@H](c3ccc4c(c3)S(=O)(=O)CCC4)C(C)C)ncnc2[nH]1
336 µM (≈ 148 µg/mL) | 316 µM (≈ 140 µg/mL) | CCNC(=O)c1cc2c(N[C@@H](c3ccc4c(c3)S(=O)(=O)CCC4)C(C)C)ncnc2[nH]1
25 µM (≈ 11.1 µg/mL) | 24 µM (≈ 10.7 µg/mL) | Cn1ncc(-c2cc3c(N[C@@H](c4ccc5c(n4)OCCO5)C(C)(C)C)ncnc3[nH]2)c1C#N
380 µM (≈ 145 µg/mL) | – | CNC(=O)c1cc2c(N[C@@H](c3ccc4c(c3)OCCO4)C(C)C)ncnc2[nH]1
15 µM (≈ 7.55 µg/mL) | – | CNC(=O)c1cccc(-c2cc3c(N[C@@H](c4ccc5c(c4)S(=O)(=O)CCC5)C(C)C)ncnc3[nH]2)c1
338 µM (≈ 167 µg/mL) | – | CC(C)[C@H](Nc1ncnc2[nH]c(-c3cnn(CC(N)=O)c3)cc12)c1ccc2c(c1)S(=O)(=O)CCC2
65 µM (≈ 30.2 µg/mL) | – | Cc1nn(C)cc1-c1cc2c(N[C@H](c3ccc4c(c3)S(=O)(=O)CCC4)C(C)C)ncnc2[nH]1
392 µM (≈ 195 µg/mL) | – | CC(C)[C@@H](Nc1ncnc2[nH]c(C(=O)N[C@@H]3CCN(C)C3)cc12)c1ccc2c(c1)S(=O)(=O)CCC2
105 µM (≈ 47.4 µg/mL) | – | CC(C)[C@@H](Nc1ncnc2[nH]c(-c3cnn(C)c3)cc12)c1ccc2c(c1)S(=O)(=O)NCC2
22 µM (≈ 10.5 µg/mL) | – | CC(C)[C@H](Nc1ncnc2[nH]c(-c3cnn(C)c3C#N)cc12)c1ccc2c(c1)S(=O)(=O)CCC2
321 µM (≈ 154 µg/mL) | 345 µM (≈ 165 µg/mL) | CNCc1cc(-c2cc3c(N[C@@H](c4ccc5c(c4)S(=O)(=O)CCC5)C(C)C)ncnc3[nH]2)co1
89 µM (≈ 41.1 µg/mL) | – | CC(C)(C)[C@H](Nc1ncnc2[nH]c(-c3cnn(CC(N)=O)c3)cc12)c1ccc2c(c1)OCCO2
358 µM (≈ 172 µg/mL) | – | CNCc1cc(-c2cc3c(N[C@H](c4ccc5c(c4)S(=O)(=O)CCC5)C(C)C)ncnc3[nH]2)co1
28 µM (≈ 12.4 µg/mL) | – | CC(C)[C@H](Nc1ncnc2[nH]c(-c3cnn(C)c3C#N)cc12)c1ccc2c(n1)NC(=O)CO2
372 µM (≈ 179 µg/mL) | – | CNCc1cc(-c2cc3c(N[C@@H](c4ccc5c(c4)S(=O)(=O)NCC5)C(C)C)ncnc3[nH]2)co1
372 µM (≈ 139 µg/mL) | – | CC(C)[C@@H](Nc1ncnc2[nH]ccc12)c1ccc2c(c1)S(=O)(=O)CCO2
389 µM (≈ 131 µg/mL) | 374 µM (≈ 126 µg/mL) | CC(C)[C@@H](Nc1ncnc2[nH]ccc12)c1ccc2c(c1)NC(=O)CO2
395 µM (≈ 144 µg/mL) | – | COc1ccc([C@@H](Cc2nnn[nH]2)NC(=O)c2ncnc3[nH]ccc23)cc1
26 µM (≈ 11.5 µg/mL) | – | CC(C)[C@H](Nc1ncnc2[nH]c(-c3cnn(C)c3C#N)cc12)c1ccc2c(c1)NC(=O)CO2
344 µM (≈ 152 µg/mL) | – | CCNC(=O)c1cc2c(N[C@@H](c3ccc4c(c3)S(=O)(=O)NCC4)C(C)C)ncnc2[nH]1
111 µM (≈ 50 µg/mL) | – | CC(C)[C@H](Nc1ncnc2[nH]c(-c3cnn(C)c3)cc12)c1ccc2c(c1)S(=O)(=O)CCC2
306 µM (≈ 155 µg/mL) | 294 µM (≈ 149 µg/mL) | CNC(=O)Cn1cc(-c2cc3c(N[C@@H](c4ccc5c(c4)S(=O)(=O)CCC5)C(C)C)ncnc3[nH]2)cn1

solubility kinetic | Solubility (mean) | Compound
89 µM (≈ 38.3 µg/mL) | 60 µM and 50 µM | CC(C)[C@@H](Nc1ncnc2[nH]c(-c3cnn(C)c3C#N)cc12)c1ccc2c(n1)OCCO2
53 µM (≈ 22.8 µg/mL) | – | CC(C)[C@H](Nc1ncnc2[nH]c(-c3cnn(C)c3C#N)cc12)c1ccc2c(n1)OCCO2
17 µM (≈ 7.3 µg/mL) | 20 µM (≈ 8.59 µg/mL) | CC(C)[C@@H](Nc1ncnc2[nH]c(-c3cnn(C)c3C#N)cc12)c1ccc2c(c1)OCCO2
374 µM (≈ 139 µg/mL) | – | CC(C)[C@H](Nc1ncnc2[nH]ccc12)c1ccc2c(c1)S(=O)(=O)CCC2
257 µM (≈ 117 µg/mL) | 216 µM (≈ 98 µg/mL) | CC(C)[C@@H](Nc1ncnc2[nH]cc(C(=O)NC3CC3)c12)c1ccc2c(c1)S(=O)(=O)CCC2
6 µM (≈ 3.01 µg/mL) | – | CC(C)[C@@H](Nc1ncnc2[nH]c(-c3ccc4nnn(C)c4c3)cc12)c1ccc2c(c1)S(=O)(=O)CCC2
94 µM (≈ 42.4 µg/mL) | 111 µM (≈ 50 µg/mL) | CC(C)[C@@H](Nc1ncnc2[nH]c(-c3cnn(C)c3)cc12)c1ccc2c(c1)S(=O)(=O)CCC2
385 µM (≈ 173 µg/mL) | 395 µM (≈ 177 µg/mL) | CC(C)[C@@H](Nc1ncnc2[nH]c(-c3cnn(CC(N)=O)c3)cc12)c1ccc2c(n1)OCCO2
236 µM (≈ 109 µg/mL) | – | CC(C)[C@@H](Nc1ncnc2[nH]c(-c3cnn(CCC(N)=O)c3)cc12)c1ccc2c(c1)OCCO2
323 µM (≈ 164 µg/mL) | – | CNC(=O)Cn1cc(-c2cc3c(N[C@H](c4ccc5c(c4)S(=O)(=O)CCC5)C(C)C)ncnc3[nH]2)cn1
14 µM (≈ 6.81 µg/mL) | – | CC(C)[C@@H](Nc1ncnc2[nH]c(-c3ccc4cncn4c3)cc12)c1ccc2c(c1)S(=O)(=O)CCC2
31 µM (≈ 16.3 µg/mL) | – | CC(C)[C@@H](Nc1ncnc2[nH]c(-c3cncc(S(C)(=O)=O)c3)cc12)c1ccc2c(c1)S(=O)(=O)CCC2
341 µM (≈ 168 µg/mL) | 335 µM (≈ 165 µg/mL) | CC(C)[C@@H](Nc1ncnc2[nH]c(-c3cnn(CC(N)=O)c3)cc12)c1ccc2c(c1)S(=O)(=O)CCC2
369 µM (≈ 158 µg/mL) | 397 µM (≈ 170 µg/mL) | CNC(=O)c1cc2c(N[C@@H](c3ccc4c(c3)S(=O)(=O)CCC4)C(C)C)ncnc2[nH]1
13 µM (≈ 6.55 µg/mL) | – | CNC(=O)c1cccc(-c2cc3c(N[C@H](c4ccc5c(c4)S(=O)(=O)CCC5)C(C)C)ncnc3[nH]2)c1
210 µM (≈ 99.9 µg/mL) | 205 µM (≈ 97.5 µg/mL) | CC(C)[C@@H](Nc1ncnc2[nH]c(-c3cnn(CC(=O)N(C)C)c3)cc12)c1ccc2c(c1)OCCO2
29 µM (≈ 12.9 µg/mL) | 28 µM (≈ 12.4 µg/mL) | CC(C)[C@@H](Nc1ncnc2[nH]c(-c3cnn(C)c3C#N)cc12)c1ccc2c(n1)NC(=O)CO2
34 µM (≈ 16.2 µg/mL) | 26 µM (≈ 12.4 µg/mL) | CC(C)[C@@H](Nc1ncnc2[nH]c(-c3cnn(C)c3C#N)cc12)c1ccc2c(c1)S(=O)(=O)CCC2
336 µM (≈ 144 µg/mL) | – | CNC(=O)c1c[nH]c2ncnc(N[C@H](c3ccc4c(c3)S(=O)(=O)CCC4)C(C)C)c12
25 µM (≈ 11.1 µg/mL) | – | Cn1ncc(-c2cc3c(N[C@@H](c4ccc5c(c4)OCCO5)C(C)(C)C)ncnc3[nH]2)c1C#N
263 µM (≈ 104 µg/mL) | – | CCNC(=O)c1cc2c(N[C@H](c3ccc4c(c3)OCCO4)C(C)C)ncnc2[nH]1
345 µM (≈ 154 µg/mL) | 332 µM (≈ 149 µg/mL) | CC(C)[C@@H](Nc1ncnc2[nH]c(-c3cnn(CC(N)=O)c3)cc12)c1ccc2c(c1)OCCO2
289 µM (≈ 133 µg/mL) | – | CNC(=O)Cn1cc(-c2cc3c(N[C@@H](c4ccc5c(c4)OCCO5)C(C)C)ncnc3[nH]2)cn1
386 µM (≈ 156 µg/mL) | – | C[C@@H](C(=O)O)[C@@H](NC(=O)c1ncnc2[nH]ccc12)c1ccc(Br)cc1
195 µM (≈ 90 µg/mL) | 104 µM (≈ 48 µg/mL) | CC(C)(C)[C@@H](Nc1ncnc2[nH]c(-c3cnn(CC(N)=O)c3)cc12)c1ccc2c(c1)OCCO2

solubility kinetic | Solubility (mean) | Compound
319 µM (≈ 122 µg/mL) | – | CNC(=O)c1c[nH]c2ncnc(N[C@@H](c3ccc4c(c3)OCCO4)C(C)C)c12
390 µM (≈ 167 µg/mL) | 204 µM (≈ 87.2 µg/mL) | CNC(=O)c1c[nH]c2ncnc(N[C@@H](c3ccc4c(c3)S(=O)(=O)CCC4)C(C)C)c12
≥ 400 µM | – | CC(C)[C@H](CO)Nc1ncnc2[nH]ccc12
280 µM (≈ 125 µg/mL) | – | CC(C)[C@H](Nc1ncnc2[nH]c(-c3cnn(CC(N)=O)c3)cc12)c1ccc2c(c1)OCCO2
375 µM (≈ 138 µg/mL) | – | CC(C)[C@@H](Nc1ncnc2[nH]cc(C(N)=O)c12)c1ccc2c(c1)OCCO2
28 µM (≈ 11 µg/mL) | – | CNC(=O)c1c[nH]c2ncnc(N[C@@H](c3ccc4c(c3)NC(=O)CO4)C(C)C)c12
319 µM (≈ 138 µg/mL) | – | O=C(Nc1ccccc1)Nc1ccc(C(=O)NC2c3cccc(O)c3CC2C(=O)O)cc1 (stereo not given)
372 µM (≈ 172 µg/mL) | – | CC(C)(C)[C@H](Nc1ncnc2[nH]c(-c3cnn(CC(N)=O)c3)cc12)c1ccc2c(n1)OCCO2
374 µM (≈ 160 µg/mL) | – | CNC(=O)c1cc2c(N[C@H](c3ccc4c(c3)S(=O)(=O)CCC4)C(C)C)ncnc2[nH]1
377 µM (≈ 169 µg/mL) | – | CC(C)[C@H](Nc1ncnc2[nH]c(-c3cnn(CC(N)=O)c3)cc12)c1ccc2c(n1)OCCO2
396 µM (≈ 197 µg/mL) | – | CC(C)[C@H](Nc1ncnc2[nH]c(C(=O)N[C@H]3CCN(C)C3)cc12)c1ccc2c(c1)S(=O)(=O)CCC2
378 µM (≈ 178 µg/mL) | – | COCCNC(=O)c1c[nH]c2ncnc(N[C@@H](c3ccc4c(c3)S(=O)(=O)CCC4)C(C)C)c12
≥ 400 µM | – | CC(C)[C@@H](Nc1ncnc(N)c1Cl)c1ccc2c(c1)S(=O)(=O)CCC2
25 µM (≈ 11.5 µg/mL) | – | CC(C)[C@@H](Nc1ncnc2[nH]c(-c3cnn(CC(N)=O)c3)cc12)c1ccc2c(c1)NC(=O)CO2
19 µM (≈ 8.62 µg/mL) | – | CC(C)[C@H](Nc1ncnc2[nH]cc(C(=O)NC3CC3)c12)c1ccc2c(c1)S(=O)(=O)CCC2
372 µM (≈ 147 µg/mL) | 380 µM (≈ 150 µg/mL) | CNC(=O)c1cc2c(N[C@@H](c3ccc4c(c3)NC(=O)CO4)C(C)C)ncnc2[nH]1
371 µM (≈ 125 µg/mL) | – | CC(C)[C@H](Nc1ncnc2[nH]ccc12)c1ccc2c(c1)NC(=O)CO2
≥ 400 µM | – | COc1ccc([C@@H](NC(=O)c2[nH]cnc3nccc2-3)C(C)c2nnn[nH]2)cc1 (stereo not given in full)
≥ 400 µM | – | COc1ccc([C@@H](CC(=O)O)NC(=O)c2ncnc3[nH]ccc23)cc1
361 µM (≈ 188 µg/mL) | – | CC(C)[C@H](Nc1ncnc2[nH]c(-c3cnn(CC(=O)N(C)C)c3)cc12)c1ccc2c(c1)S(=O)(=O)CCC2
366 µM (≈ 182 µg/mL) | – | CC(C)[C@H](Nc1ncnc2[nH]c(C(=O)N[C@@H]3CCN(C)C3)cc12)c1ccc2c(c1)S(=O)(=O)CCC2
14 µM (≈ 4.51 µg/mL) | – | COc1ccc2c(c1)CCN(c1ncnc3[nH]ccc13)[C@H]2C(C)C
15 µM (≈ 6.44 µg/mL) | – | CC(C)[C@H](Nc1ncnc2[nH]c(-c3cnn(C)c3C#N)cc12)c1ccc2c(c1)OCCO2
≥ 400 µM | – | O=C(Nc1cccc2c(C(=O)N[C@@H]3c4ccccc4C[C@@H]3C(=O)O)c[nH]c12)NC1CC1
337 µM (≈ 149 µg/mL) | – | CCNC(=O)c1cc2c(N[C@H](c3ccc4c(c3)S(=O)(=O)CCC4)C(C)C)ncnc2[nH]1
